According to the NIST ThermoML archive (doi:10.1021/je025657+):
“And” between values parts separate entries of the source, which are not always exact repeats. Equal values may be shown once.

COC(F)(F)C(F)(F)F [methyl pentafluoroethyl ether]
Conditions	mass density [kg/m3]
330 K, 2009.1 kPa, Liquid	1174.81
330 K, 2033.5 kPa, Liquid	1173.24
330 K, 2499.3 kPa, Liquid	1178.46
330 K, 3014.1 kPa, Liquid	1182.15
330 K, 3040.4 kPa, Liquid	1180.5
330 K, 3527.6 kPa, Liquid	1185.73
330 K, 4007.5 kPa, Liquid	1188.95
330 K, 4054 kPa, Liquid	1187.37
330 K, 4522.8 kPa, Liquid	1192.32
330 K, 5044.3 kPa, Liquid	1195.65
330 K, 5095.2 kPa, Liquid	1194.02
330 K, 5526.8 kPa, Liquid	1198.64
330 K, 6004.2 kPa, Liquid	1201.54
330 K, 6121.5 kPa, Liquid	1200.18
330 K, 6544.9 kPa, Liquid	1204.73
330 K, 7006.4 kPa, Liquid	1207.37
330 K, 7184 kPa, Liquid	1206.23
340 K, 72.2 kPa, Gas	3.93
340 K, 97.1 kPa, Gas	5.22
340 K, 106 kPa, Gas	5.76
340 K, 154.8 kPa, Gas	8.59
340 K, 198.1 kPa, Gas	11.09
340 K, 224.8 kPa, Gas	12.57
340 K, 295.9 kPa, Gas	17.05
340 K, 323.2 kPa, Gas	18.7
340 K, 396.6 kPa, Gas	23.61
340 K, 495.8 kPa, Gas	30.46
340 K, 596 kPa, Gas	38.08
340 K, 597.2 kPa, Gas	38.04
340 K, 707 kPa, Liquid	1124.67
340 K, 722.8 kPa, Liquid	1124.82
340 K, 1026.7 kPa, Liquid	1129.54
340 K, 1053.7 kPa, Liquid	1128.14
340 K, 1524.7 kPa, Liquid	1134.41
340 K, 1999.2 kPa, Liquid	1137.11
340 K, 2020.3 kPa, Liquid	1139.04
340 K, 2516 kPa, Liquid	1143.49
340 K, 3002.4 kPa, Liquid	1147.7
340 K, 3017 kPa, Liquid	1145.96
340 K, 3529.7 kPa, Liquid	1152.07
340 K, 3993.9 kPa, Liquid	1155.78
340 K, 4072.4 kPa, Liquid	1154.47
340 K, 4525.8 kPa, Liquid	1159.9
340 K, 5046.6 kPa, Liquid	1163.8
340 K, 5093 kPa, Liquid	1162.13
340 K, 5487.3 kPa, Liquid	1166.99
340 K, 6030.7 kPa, Liquid	1170.83
340 K, 6115.2 kPa, Liquid	1169.4
340 K, 6527.2 kPa, Liquid	1174.25
340 K, 7001.9 kPa, Liquid	1177.33
340 K, 7160.8 kPa, Liquid	1176.36
350 K, 71.4 kPa, Gas	3.8
350 K, 104.7 kPa, Gas	5.6
350 K, 129.8 kPa, Gas	6.86
350 K, 152.8 kPa, Gas	8.19
350 K, 222 kPa, Gas	12.14
350 K, 275 kPa, Gas	15.14
350 K, 319.9 kPa, Gas	17.93
350 K, 395 kPa, Gas	22.4
350 K, 455.2 kPa, Gas	26.4
350 K, 560.7 kPa, Gas	33.51
350 K, 777.4 kPa, Gas	50.08
350 K, 799.2 kPa, Gas	52.12
350 K, 902.4 kPa, Liquid	1084.92
350 K, 933 kPa, Liquid	1085.29
350 K, 1008.2 kPa, Liquid	1087.64
350 K, 1049.9 kPa, Liquid	1086.78
350 K, 1470.3 kPa, Liquid	1093.45
350 K, 2013.5 kPa, Liquid	1099.88
350 K, 2056.5 kPa, Liquid	1098.92
350 K, 2517.3 kPa, Liquid	1105.5
350 K, 3024.3 kPa, Liquid	1110.87
350 K, 3061.7 kPa, Liquid	1109.59
350 K, 3474.5 kPa, Liquid	1115.43
350 K, 4005.1 kPa, Liquid	1120.6
350 K, 4100.2 kPa, Liquid	1119.85
350 K, 4481.5 kPa, Liquid	1124.97
350 K, 4979.5 kPa, Liquid	1129.41
350 K, 5116.8 kPa, Liquid	1128.93
350 K, 5469.1 kPa, Liquid	1133.62
350 K, 5973.9 kPa, Liquid	1137.8
350 K, 6125.5 kPa, Liquid	1137.3
350 K, 6531.4 kPa, Liquid	1142.27
350 K, 6996.6 kPa, Liquid	1145.86
350 K, 7196.9 kPa, Liquid	1145.6
360 K, 45.3 kPa, Gas	2.31
360 K, 98.2 kPa, Gas	5.11
360 K, 137.2 kPa, Gas	7.1
360 K, 200.1 kPa, Gas	10.49
360 K, 231.4 kPa, Gas	12.2
360 K, 289.8 kPa, Gas	15.49
360 K, 334.5 kPa, Gas	18.07
360 K, 415.3 kPa, Gas	22.84
360 K, 477.9 kPa, Gas	26.77
360 K, 586.1 kPa, Gas	33.71
360 K, 670.7 kPa, Gas	39.54
360 K, 807.9 kPa, Gas	49.64
360 K, 915.4 kPa, Gas	58.53
360 K, 990.4 kPa, Gas	65.14
360 K, 1139.7 kPa, Liquid	1041.29
360 K, 1228 kPa, Liquid	1042.77
360 K, 1529.8 kPa, Liquid	1049.05

mass density
Conditions	330 K	340 K	350 K
Gas	–	47.9 kg/m3	61.38 kg/m3
Liquid	1161.46 kg/m3 and 1163.08 kg/m3	1124.55 kg/m3 and 1126.1 kg/m3 and 1126.12 kg/m3	1084.74 kg/m3 and 1086.06 kg/m3
